Results on eleven compounds are retold here after patent US9718819B2 (Merck Sharp & Dohme Corp., priority 2012, dated 2017).

In this assay the target is HIV-1 RT wild-type enzyme (Human immunodeficiency virus type 1 group M subtype B (isolate HXB2) (HIV-1), UniProt P04585). Briefly: HIV-1 reverse transcriptase inhibitory activity (RT polymerase assay). The class given is biochemical. The settings on record: HIV-1 RT wild-type enzyme 83 pM; RNA-dependent DNA polymerase activity; read-out: IC50. The method, boiled down:
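Biotinylated DNA primer annealed to HCV-derived RNA template (16.6 nM final hybrid), with 2 μM dATP/dGTP/dCTP and 66.6 nM Ru-dUTP, after 30 min compound–enzyme preincubation at room temperature; polymerization 90 min at 37 °C, EDTA quench. Product captured on avidin plates, electrochemiluminescence read; IC50 by four-parameter logistic fit versus DMSO and 1 μM efavirenz controls.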
Regarding `N#Cc1cc(Cl)cc(Oc2c(C(F)(F)F)ncn(Cc3cc(-c4ccc(C#N)c(F)c4)n[nH]c3=O)c2=O)c1` [Example 122, 4-(5-((5-(3-chloro-5-cyanophenoxy)-6-oxo-4-(trifluoromethyl)pyrimidin-1(6H)-yl)methyl)-6-oxo-1,6-dihydropyridazin-3-yl)-2-fluorobenzonitrile], the IC50 (as a rule, the concentration that inhibits the measured activity by half) came out at 6 nM.

As for `N#Cc1cc(Cl)cc(Oc2c(C(F)(F)F)ncn(Cc3cc(-c4ccc(Cl)c(F)c4)n[nH]c3=O)c2=O)c1` [Example 123, 3-chloro-5-((1-((6-(4-chloro-3-fluorophenyl)-3-oxo-2,3-dihydropyridazin-4-yl)methyl)-6-oxo-4-(trifluoromethyl)-1,6-dihydropyrimidin-5-yl)oxy)benzonitrile], the IC50 was 6 nM.

As to `N#Cc1cc(Cl)cc(Oc2c(C(F)(F)F)ncn(Cc3cc(-c4cccnc4)n[nH]c3=O)c2=O)c1` [Example 124, 3-chloro-5-((6-oxo-1-((3-oxo-6-(pyridin-3-yl)-2,3-dihydropyridazin-4-yl)methyl)-4-(trifluoromethyl)-1,6-dihydropyrimidin-5-yl)oxy)benzonitrile], the IC50 was 6 nM.

As for `N#Cc1cc(Cl)cc(Oc2c(C(F)(F)F)ncn(Cc3cc(-c4ccc(C(O)C(F)F)cc4)n[nH]c3=O)c2=O)c1` (centres unmarked) [Example 125, 3-chloro-5-((1-((6-(4-(2,2-difluoro-1-hydroxyethyl)phenyl)-3-oxo-2,3-dihydropyridazin-4-yl)methyl)-6-oxo-4-(trifluoromethyl)-1,6-dihydropyrimidin-5-yl)oxy)benzonitrile], the IC50 is 8 nM.

Turning to `N#Cc1cc(Cl)cc(Oc2c(C(F)(F)F)ncn(Cc3cc(-c4ccnc5[nH]ccc45)n[nH]c3=O)c2=O)c1` [Example 126, 3-chloro-5-((6-oxo-1-((3-oxo-6-(1H-pyrrolo[2,3-b]pyridin-4-yl)-2,3-dihydropyridazin-4-yl)methyl)-4-(trifluoromethyl)-1,6-dihydropyrimidin-5-yl)oxy)benzonitrile], the 50% inhibitory concentration (IC50) is 4 nM.

With `N#Cc1cc(Cl)cc(Oc2c(C(F)(F)F)ncn(Cc3cnc(C(F)(F)F)[nH]c3=O)c2=O)c1` [Example 131, 3-Chloro-5-[16-oxo-1-(6-oxo-2-trifluoromethyl-1,6-dihydro-pyrimidin-5-ylmethyl)-4-trifluoromethyl-1,6-dihydro-pyrimidin-5-yloxy]-benzonitrile], the IC50 turned out to be 435 nM.

On to `CSc1ncc(Cn2cnc(C(F)(F)F)c(Oc3cc(Cl)cc(C#N)c3)c2=O)c(=O)[nH]1` [Example 132, 3-chloro-5-((1-((2-(methylthio)-6-oxo-1,6-dihydropyrimidin-5-yl)methyl)-6-oxo-4-(trifluoromethyl)-1,6-dihydropyrimidin-5-yl)oxy)benzonitrile], for which the IC50 is 12 nM.

On to `Cc1ncc(Cn2cnc(C(F)(F)F)c(Oc3cc(Cl)cc(C#N)c3)c2=O)c(=O)[nH]1` [Example 133, 3-chloro-5-((1-((2-methyl-6-oxo-1,6-dihydropyrimidin-5-yl)methyl)-6-oxo-4-(trifluoromethyl)-1,6-dihydropyrimidin-5-yl)oxy)benzonitrile], for which the IC50 came out at 8 nM.

For the compound `N#Cc1cc(Cl)cc(Oc2c(C3CC3)ncn(Cc3ccc(=O)[nH]n3)c2=O)c1` [Example 134, 3-chloro-5-((4-cyclopropyl-6-oxo-1-((6-oxo-1,6-dihydropyridazin-3-yl)methyl)-1,6-dihydropyrimidin-5-yl)oxy)benzonitrile], the IC50 was found to be 17 nM.

On to `N#Cc1cc(Cl)cc(Oc2c(C(F)(F)F)ncn(Cc3cnc(O)[nH]c3=O)c2=O)c1` [Example 135, 3-chloro-5-((1-((2-hydroxy-6-oxo-1,6-dihydropyrimidin-5-yl)methyl)-6-oxo-4-(trifluoromethyl)-1,6-dihydropyrimidin-5-yl)oxy)benzonitrile], for which the IC50 stood at 8 nM.

Regarding `N#Cc1cc(Cl)cc(Oc2c(C(F)(F)F)ncn(Cc3cnc[nH]c3=O)c2=O)c1` [Example 136, 3-chloro-5-((6-oxo-1-((6-oxo-1,6-dihydropyrimidin-5-yl)methyl)-4-(trifluoromethyl)-1,6-dihydropyrimidin-5-yl)oxy)benzonitrile], the IC50 came to 6 nM.
